Results from patent US12304916B2, “Thienopyridinyl and thiazolopyridinyl compounds useful as IRAK4 inhibitors” (BRISTOL-MYERS SQUIBB COMPANY, priority 2019, dated 2025).
pIC50: −log10 of the molar value.

The molecules below were run against IRAK4 (Homo sapiens (Human), UniProt Q9NWZ3) (assay: IRAK4 Inhibition Assay). Conditions: ATP 500 μM; IRAK4 0.6 nM; 60 min at room temperature.
Type: biochemical
Method: The assays were performed in U-bottom 384-well plates. The final assay volume was 30 μL prepared from 15 μL additions of enzyme and substrates (fluoresceinated peptide and ATP) and test compounds in assay buffer (20 mM HEPES pH 7.2, 10 mM MgCl2, 0.015% Brij 35 and 4 mM DTT). The reaction was initiated by the combination of IRAK4 with substrates and test compounds. The reaction mixture was incubated at room temperature for 60 min. and terminated by adding 45 μL of 35 mM EDTA to each sample. The reaction mixture was analyzed on the Caliper LABCHIP® 3000 (Caliper, Hopkinton, MA) by electrophoretic separation of the fluorescent substrate and phosphorylated product. Inhibition data were calculated by comparison to no enzyme control reactions for 100% inhibition and vehicle-only reactions for 0% inhibition. The final concentrations of reagents in the assays are ATP, 500 μM; FL-IPTSPITTTYFFFKKK peptide 1.5 μM; IRAK4, 0.6 nM; and DMSO, 1.6%.

Chain of IRAK4 (Q9NWZ3 whole entry, species assumed): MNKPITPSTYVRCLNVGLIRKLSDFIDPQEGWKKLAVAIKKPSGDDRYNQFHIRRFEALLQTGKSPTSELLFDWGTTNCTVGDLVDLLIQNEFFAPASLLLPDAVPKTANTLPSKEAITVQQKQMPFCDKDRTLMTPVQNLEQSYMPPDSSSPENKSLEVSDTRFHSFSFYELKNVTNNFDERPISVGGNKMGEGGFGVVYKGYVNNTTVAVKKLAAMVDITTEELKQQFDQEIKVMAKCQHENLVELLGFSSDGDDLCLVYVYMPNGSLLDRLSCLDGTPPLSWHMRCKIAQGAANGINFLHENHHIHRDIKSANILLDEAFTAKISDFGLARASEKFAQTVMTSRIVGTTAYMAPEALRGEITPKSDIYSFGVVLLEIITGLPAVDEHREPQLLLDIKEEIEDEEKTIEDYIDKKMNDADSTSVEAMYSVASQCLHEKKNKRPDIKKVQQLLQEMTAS

Structure (SMILES) | pIC50
CC(C)Nc1c(C(=O)NCC2(CO)COC2)cnc2sc(-c3cncs3)cc12 [Example 47, N-((3-(hydroxymethyl)oxetan-3-yl)methyl)-4-(isopropylamino)-2-(thiazol-5-yl)thieno[2,3-b]pyridine-5-carboxamide] | 6.67
C[C@H](CCO)NC(=O)c1cnc2sc(-c3cncs3)cc2c1Nc1cnn(CC(F)F)c1 [Example 48, (R)-4-((1-(2,2-difluoroethyl)-1H-pyrazol-4-yl)amino)-N-(4-hydroxybutan-2-yl)-2-(thiazol-5-yl)thieno[2,3-b]pyridine-5-carboxamide] | 5.73
O=C(N[C@H]1CC[C@H](O)CC1)c1cnc2sc(-c3cncs3)cc2c1Nc1cnn(CC(F)F)c1 [Example 49, 4-((1-(2,2-difluoroethyl)-1H-pyrazol-4-yl)amino)-N-((1s,4s)-4-hydroxycyclohexyl)-2-(thiazol-5-yl)thieno[2,3-b]pyridine-5-carboxamide] | 6.39
COCCNC(=O)c1cnc2sc(-c3cncs3)cc2c1Nc1cnn(CC(F)F)c1 [Example 51, 4-((1-(2,2-difluoroethyl)-1H-pyrazol-4-yl)amino)-N-(2-methoxyethyl)-2-(thiazol-5-yl)thieno[2,3-b]pyridine-5-carboxamide] | 5.91
CC(C)(O)[C@H](F)CNC(=O)c1cnc2sc(-c3cncs3)cc2c1Nc1cnn(CC(F)F)c1 [Example 52, (R)-4-((1-(2,2-difluoroethyl)-1H-pyrazol-4-yl)amino)-N-(2-fluoro-3-hydroxy-3-methylbutyl)-2-(thiazol-5-yl)thieno[2,3-b]pyridine-5-carboxamide] | 7.14
O=C(N[C@H]1CC[C@H](O)CC1)c1cnc2sc(-c3cncs3)cc2c1NC1COC1 [Example 54, N-((1s,4s)-4-hydroxycyclohexyl)-4-(oxetan-3-ylamino)-2-(thiazol-5-yl)thieno[2,3-b]pyridine-5-carboxamide] | 6.71
O=C(NCc1ncn[nH]1)c1cnc2sc(-c3cncs3)cc2c1NC1COC1 [Example 55, N-((1H-1,2,4-triazol-5-yl)methyl)-4-(oxetan-3-ylamino)-2-(thiazol-5-yl)thieno[2,3-b]pyridine-5-carboxamide] | 6.70
COc1ncc(-c2cc3c(NC(C)C)c(C(=O)NC[C@@H](F)C(C)(C)O)cnc3s2)s1 [Example 58, (R)-N-(2-fluoro-3-hydroxy-3-methylbutyl)-4-(isopropylamino)-2-(2-methoxythiazol-5-yl)thieno[2,3-b]pyridine-5-carboxamide] | 7.27
CC(C)Nc1c(C(=O)NC2CC(O)C2)cnc2sc(-c3cncs3)cc12 (stereo not shown) [Example 61, N-(3-hydroxycyclobutyl)-4-(isopropylamino)-2-(thiazol-5-yl) thieno[2,3-b]pyridine-5-carboxamide] | 7.01
CC(C)Nc1c(C(=O)NC[C@@H](F)C(C)(C)O)cnc2sc(-c3cscn3)cc12 [Example 62, (R)-N-(2-fluoro-3-hydroxy-3-methylbutyl)-4-(isopropylamino)-2-(thiazol-4-yl)thieno[2,3-b]pyridine-5-carboxamide] | 7.45
CC(C)Nc1c(C(=O)NC[C@@H](F)C(C)(C)O)cnc2sc(-c3ccc(C#N)nc3)cc12 [Example 64, (R)-2-(6-cyanopyridin-3-yl)-N-(2-fluoro-3-hydroxy-3-methylbutyl)-4-(isopropylamino)thieno[2,3-b]pyridine-5-carboxamide] | 8.07
CC(C)Nc1c(C(=O)NC[C@@H](F)C(C)(C)O)cnc2sc(-c3cncc(C#N)c3)cc12 [Example 65, (R)-2-(5-cyanopyridin-3-yl)-N-(2-fluoro-3-hydroxy-3-methylbutyl)-4-(isopropylamino)thieno[2,3-b]pyridine-5-carboxamide] | 7.73
CC(=O)N1CCC(NC(=O)c2cnc3sc(-c4ccc(=O)[nH]c4)cc3c2NC(C)C)CC1 [Example 66, N-(1-acetylpiperidin-4-yl)-4-(isopropylamino)-2-(6-oxo-1,6-dihydropyridin-3-yl)thieno[2,3-b]pyridine-5-carboxamide] | 7.43
